From US12357624B2, “Low dose pridopidine for Parkinson's Disease and other diseases associated with parkinsonism” (PRILENIA NEUROTHERAPEUTICS LTD., priority 2019, dated 2025)

Tested on: GDNF, BDNF, phosphorylated ERK1/2
Details: 0.3 mg/kg, 35 days
Procedure: Animals prepared for Western blot analysis were euthanized by cervical dislocation; their brains were rapidly extracted and frozen on crushed dry ice. Tissue samples were dissected out in a cryostat chamber (−14° C.). […] The striatum was dissected out using a scalpel blade. Tissue samples from the substantia nigra were taken with a tissue puncher of 2 mm diameter spanning across rostrocaudal levels −2.70 to −3.80 relative to the bregma. The samples were kept frozen until further analysis.
Tissue homogenates were prepared in cell lysis buffer (20 mmol/LTris (pH 7.5), 150 mmol/L NaCl, 1 mmol/L EDTA, 1 mmol/L EGTA, 1% Triton X-100, 2.5 mmol/L sodium pyrophosphate, 1 mmol/L |3-glycerolphosphate, 1 mmol/L Na3VO4, […] leupeptin, and 1 mmol/L phenylmethylsulfonyl fluoride). Twenty micrograms of protein was separated on a 10% SDS polyacrylamide gel. […] Thereafter, membranes were incubated overnight at 4° C. using one of the following primary antibodies: rabbit polyclonal anti-GDNF (Santa Cruz Biotechnology, Inc., Santa Cruz, CA; 1:1000) and monoclonal anti-BDNF (Santa Cruz Biotechnology, Inc., 1:1000); rabbit polyclonal antibodies against Thr202/Tyr204-phosphorylated ERK1/2 (p44/42-MAPK; Cell Signaling Technology Inc., Danvers, MA, 1:2000). Following appropriate washing steps, membranes were incubated with HRP-linked secondary antibodies (Sigma-Aldrich, Deisenhofen, Germany; 1:15000). Signals were visualized using a chemiluminescence kit (Merck Millipore, Watford, Hertfordshire, UK), and images were acquired using a CCD camera (LAS1000 system, Fuji Films, Tokyo, Japan). Optical density was measured on specific immunoreactive bands using NIH Image J software. Membranes were then stripped and reprobed with |-actin antibodies (Sigma-Aldrich, 1:50,000). The optical density of specific bands was then normalized to the |-actin band in the same lane.

Compound: CCCN1CCC(c2cccc(S(C)(=O)=O)c2)CC1 [pridopidine, 4-[3-(methylsulfonyl)phenyl]-1-propyl-piperidine]
- striatal BDNF level vs saline (striatum): +80.8%
- striatal GDNF level vs saline (striatum): +37.6%
- striatal phosphorylated ERK1/2 vs saline (striatum): +71%
- BDNF level in the SN vs saline (substantia nigra): +88.5%
- GDNF level in the SN vs saline (substantia nigra): only BDNF levels showed a significant increase
- nigral phosphorylated ERK1/2 vs saline (substantia nigra): reached significance only in the striatum
